Test results as given in US20110288082A1, “METHODS AND COMPOSITIONS FOR INHIBITION OF THE TRANSITIONAL ENDOPLASMIC RETICULUM ATPASE” (priority 2010, published 2011).
Where two headings read alike, the source gives them in different places.

What was measured:
[1] = target: p97 (Homo sapiens, UniProt P55072); assay: p97 ATPase assay (Kinase Glo Plus; biomol green for compounds that interfere with luciferase); format: biochemical
Summary of the method: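 Purified p97 in 50 mM Tris pH 7.4, 20 mM MgCl2, 1 mM EDTA, 0.5 mM TCEP, preincubated 10 min with compound (0–30 μM, triplicate), then ATP 60 min at room temperature. Remaining ATP read by Kinase Glo Plus luminescence, or biomol green at 630 nm for luciferase-interfering compounds; % activity versus DMSO and no-enzyme controls, mean ± SE.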

[2] = system: p97-dependent Ub^G76V-GFP degradation in HeLa cells; assay: Ub^G76V-GFP degradation (turn-over) assay; format: cell-based, human; settings: Homo sapiens, HeLa
Summary of the method: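 HeLa cells expressing Ub^G76V-GFP were imaged, and mean GFP intensity per cell area was taken over 300-500 cells, background-subtracted and normalized to DMSO-treated basal intensity. The degradation rate constant k with compound is expressed as percent of the DMSO control k.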

[3] = read-out: IC50 (μM) Ub^G76V-GFP turn over, p97-dependent Ub^G76V-GFP degradation turn-over assay

Sequence of p97 (P55072 2-806 limits assumed): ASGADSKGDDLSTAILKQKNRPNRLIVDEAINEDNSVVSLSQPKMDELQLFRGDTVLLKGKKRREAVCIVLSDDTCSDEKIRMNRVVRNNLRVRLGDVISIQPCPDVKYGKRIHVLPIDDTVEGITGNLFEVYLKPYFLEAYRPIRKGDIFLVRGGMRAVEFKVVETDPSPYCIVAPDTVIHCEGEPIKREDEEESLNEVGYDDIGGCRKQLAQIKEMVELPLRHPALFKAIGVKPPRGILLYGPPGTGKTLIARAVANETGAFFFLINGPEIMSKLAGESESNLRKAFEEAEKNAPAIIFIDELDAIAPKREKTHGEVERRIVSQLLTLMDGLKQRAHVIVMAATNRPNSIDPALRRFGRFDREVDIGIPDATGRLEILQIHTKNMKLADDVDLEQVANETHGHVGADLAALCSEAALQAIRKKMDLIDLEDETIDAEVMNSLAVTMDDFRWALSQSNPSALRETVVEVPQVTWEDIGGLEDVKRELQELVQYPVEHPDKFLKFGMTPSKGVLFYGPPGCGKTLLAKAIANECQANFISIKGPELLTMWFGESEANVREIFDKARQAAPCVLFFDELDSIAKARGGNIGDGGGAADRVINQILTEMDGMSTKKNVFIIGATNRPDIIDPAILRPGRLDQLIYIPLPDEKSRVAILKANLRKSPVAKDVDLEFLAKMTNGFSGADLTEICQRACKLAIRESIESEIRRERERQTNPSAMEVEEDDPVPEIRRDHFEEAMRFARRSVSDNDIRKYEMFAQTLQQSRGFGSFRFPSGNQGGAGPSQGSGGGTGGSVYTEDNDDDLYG

Row | SMILES | IC50 ([1]; p97 ATPase assay) [µM] | IC50 [2, 3] [µM] | IC50 ([2]; read-out: IC50 (μM) Ub^G76V-GFP turn over) [µM] | IC50 ([1]; purified p97, ATP, 60 min room temperature, mean +/- standard error) [µM] | IC50 ([2]; read-out: IC50 (μM) Ub^G76V-GFP turn over, Ub^G76V-GFP-expressing HeLa cells, degradation rate constant k from 90 to 180 min, mean +/- standard error) [µM]
1 | COc1cccc2c(NCc3ccccc3)nc(-n3c(N)nc4cc(C)c(C)cc43)nc12 [XXI-1] | 2 ± 0.4 | 89 ± 39 |  |  | 
2 | c1ccc(CNc2nc(N3CCN(Cc4ccccc4)CC3)nc3ccccc23)cc1 [XXIII] | 33 ± 8 | 12 ± 1 |  |  | 
3 | Clc1ccccc1-c1nc(N2CCCc3ccccc32)c2ccccc2n1 [XXIV] | > 30 | 11 ± 0.8 |  |  | 
4 | COc1ccc(Nc2nc(Nc3ccc(OC)cc3)c3ccccc3n2)cc1 [XXV-1] | 22 ± 4 |  | 23 ± 3 |  | 
5 | Clc1cccc(Nc2nc(Nc3ccccc3)c3ccccc3n2)c1 [XXV-2] | 34 ± 16 | 12 ± 2 |  |  | 
6 | c1ccc(CNc2ccnc(N3CCOc4ccccc43)n2)cc1 [XX] | 2.9 ± 0.2 | 27 ± 3 |  |  | 
7 | Cc1nc(N2CCOc3ccccc32)nc(NCc2ccccc2)c1C [X] |  |  |  | 1.1 ± 0.2 | 10 ± 1
